From patent US9145425B2, “Cephem compound having catechol group” (SHIONOGI & CO., LTD., priority 2010, dated 2015)
≈ marks a conversion by molar mass, not a printed value. Read-outs that look alike come from different tables or passages of the source.

Key:
Assay type in all cases: cell-based
[1] = system: Acinetobacter baumannii SR24396; assay: Minimum Inhibitory Concentration (MIC), agar plate incubation, Japan Society for Chemotherapy standard method
Protocol: (§1) The antimicrobial activity in vitro of the present compound (I) was determined.
(§2) Measurement of Minimum Inhibitory Concentration (MIC, μg/ml) was conducted according to the standard method of the Japan Society for Chemotherapy and the amount of bacteria for inoculation was 1000 cfu/spot, and sensitive disc medium was used as the test medium, and conducted using agar plate incubation.
(§3) In the tables, the unit of the values of inhibitory activity is μg/ml.

[2] = system: Klebsiella pneumoniae ATCC 700603; assay: as above
Protocol: as §1, §2, §3

[3] = system: Pseudomonas aeruginosa SR24; assay: as above; details: Pseudomonas aeruginosa SR24, no enzyme, ceftazidime sensitive strain, 1000 cfu/spot, sensitive disc medium; for MIC: read-out: Minimum Inhibitory Concentration (MIC)
Protocol: as §1, §2, §3

[4] = system: Pseudomonas aeruginosa SR27060; assay: as above
Protocol: as §1, §2, §3

[5] = system: Stenotrophomonas maltophilia SR21970; assay: Minimum Inhibitory Concentration (MIC), agar plate incubation, CLSI method
Protocol: as §1
Measurement of Minimum Inhibitory Concentration (MIC, μg/ml) was conducted according to the CLSI (Clinical and Laboratory Standards Institute) and the amount of bacteria for inoculation was 10000 cfu/spot, and Mueller-Hinton agar medium was used as the test medium, and conducted using agar plate incubation.
as §3

[6] = Acinetobacter baumannii SR24396, no enzyme, 1000 cfu/spot, sensitive disc medium, read-out: Minimum Inhibitory Concentration (MIC)
[7] = ATCC700603, Klebsiella pneumoniae ATCC 700603, SHV-18, ESBL producer strain, 1000 cfu/spot, sensitive disc medium, read-out: Minimum Inhibitory Concentration (MIC)
[8] = Pseudomonas aeruginosa SR27060, IMP-1, MBL producer strain (carbapenem resistant strain), 1000 cfu/spot, sensitive disc medium, read-out: Minimum Inhibitory Concentration (MIC)
[9] = Stenotrophomonas maltophilia SR21970, L-1, MBL producer strain (carbapenem resistant strain), 10000 cfu/spot, Mueller-Hinton agar medium, read-out: Minimum Inhibitory Concentration (MIC)
[10] = Acinetobacter baumannii SR24396, no enzyme, 1000 cfu/spot, sensitive disc medium
[11] = Klebsiella pneumoniae ATCC 700603, SHV-18, ESBL producer strain, 1000 cfu/spot, sensitive disc medium
[12] = Pseudomonas aeruginosa SR27060, IMP-1, MBL producer strain (carbapenem resistant strain), 1000 cfu/spot, sensitive disc medium
[13] = Stenotrophomonas maltophilia SR21970, L-1, MBL producer strain (carbapenem resistant strain), 10000 cfu/spot, Mueller-Hinton agar medium
[14] = Acinetobacter baumannii, SR24396, read-out: Minimum Inhibitory Concentration (MIC)
[15] = Klebsiella pneumoniae, ATCC700603, read-out: Minimum Inhibitory Concentration (MIC)
[16] = Pseudomonas aeruginosa, SR27060, read-out: Minimum Inhibitory Concentration (MIC)
[17] = Stenotrophomonas maltophilia, SR21970, read-out: Minimum Inhibitory Concentration (MIC)

SMILES	Minimum Inhibitory Concentration (MIC) [1, 10] [µg/mL]	Minimum Inhibitory Concentration (MIC) [2, 11] [µg/mL]	Minimum Inhibitory Concentration (MIC) [3] [µg/mL]	Minimum Inhibitory Concentration (MIC) [4, 12] [µg/mL]	Minimum Inhibitory Concentration (MIC) [5, 13] [µg/mL]	other results
CC(C)(O/N=C(\C(=O)N[C@@H]1C(=O)N2C(C(=O)[O-])=C(C[N+]3(Cc4nnc(-c5ccc(O)c(O)c5Cl)o4)CCCC3)CS[C@H]12)c1csc(N)n1)C(=O)[O-].[Na+] [Compound I-1]						MIC [1, 6]: 0.25 µg/mL; MIC [2, 7]: 0.25 µg/mL; MIC [3]: 0.063 µg/mL; MIC [4, 8]: 0.25 µg/mL; MIC [5, 9]: 1 µg/mL
CC(C)(O/N=C(\C(=O)N[C@@H]1C(=O)N2C(C(=O)[O-])=C(C[N+]34CCC(CC3)N(C(=O)c3ccc(O)c(O)c3Cl)CC4)CS[C@H]12)c1csc(N)n1)C(=O)[O-].[Na+] [Compound I-5]						MIC [1, 6]: 0.125 µg/mL; MIC [2, 7]: 0.25 µg/mL; MIC [3]: 0.063 µg/mL; MIC [4, 8]: 0.5 µg/mL; MIC [5, 9]: 0.5 µg/mL
CC(C)(O/N=C(\C(=O)N[C@@H]1C(=O)N2C(C(=O)[O-])=C(C[N@+]34CC[C@H](C3)N(C(=O)c3ccc(O)c(O)c3Cl)CC4)CS[C@H]12)c1csc(N)n1)C(=O)[O-].[Na+] [Compound I-6]						MIC [1, 6]: 0.125 µg/mL; MIC [2, 7]: 1 µg/mL; MIC [3]: 0.063 µg/mL; MIC [4, 8]: 0.5 µg/mL; MIC [5, 9]: 1 µg/mL
Nc1nc(/C(=N/O[C@@H](CC(=O)[O-])C(=O)[O-])C(=O)N[C@@H]2C(=O)N3C(C(=O)[O-])=C(C[N+]45CCC(CC4)N(C(=O)c4ccc(O)c(O)c4Cl)CC5)CS[C@H]23)cs1.[Na+].[Na+] [Compound I-9]						MIC [1, 6]: 0.125 µg/mL; MIC [2, 7]: 0.125 µg/mL; MIC [3]: 0.063 µg/mL; MIC [4, 8]: 0.25 µg/mL; MIC [5, 9]: 0.5 µg/mL
CC(C)(O/N=C(\C(=O)N[C@@H]1C(=O)N2C(C(=O)[O-])=C(C[N+]34CCC(CC3)[C@H](NC(=O)c3ccc(O)c(O)c3Cl)C4)CS[C@H]12)c1csc(N)n1)C(=O)O [Compound I-19]						MIC [1, 6]: 0.125 µg/mL (≈ 0.164 µM); MIC [2, 7]: 0.5 µg/mL (≈ 0.654 µM); MIC [3]: 0.125 µg/mL (≈ 0.164 µM); MIC [4, 8]: 0.125 µg/mL (≈ 0.164 µM); MIC [5, 9]: 0.5 µg/mL (≈ 0.654 µM)
CC(C)(O/N=C(\C(=O)N[C@@H]1C(=O)N2C(C(=O)[O-])=C(C[N+](C)(C)C3CCN(C(=O)c4ccc(O)c(O)c4Cl)CC3)CS[C@H]12)c1csc(N)n1)C(=O)[O-].[Na+] [Compound I-21]	0.125	0.5	0.125	1	1	
CC(C)(O/N=C(\C(=O)N[C@@H]1C(=O)N2C(C(=O)[O-])=C(C[N+]34CCC(CC3)N(C(=O)c3ccc(O)c(O)c3Cl)CC4)CS[C@H]12)c1nsc(N)n1)C(=O)[O-].[Na+] [Compound I-34]	0.125	0.5	0.063	0.5	0.5	
CC(ON=C(C(=O)NC1C(=O)N2C(C(=O)[O-])=C(C[N+]34CCC(CNC(=O)c5ccc(O)c(O)c5Cl)(CC3)CC4)CSC12)c1csc(N)n1)C(=O)[O-].[Na+] (centres unmarked) [Compound I-35]	0.5	1	0.063	0.25	1	
CC(ON=C(C(=O)NC1C(=O)N2C(C(=O)[O-])=C(C[N+]3(CCNC(=O)c4ccc(O)c(O)c4Cl)CCCC3)CSC12)c1csc(N)n1)C(=O)[O-].[Na+] (centres unmarked) [Compound I-36]	0.5	0.5	0.125	0.25	1	
CC(C)(O/N=C(\C(=O)N[C@@H]1C(=O)N2C(C(=O)O)=C(C[N+]3(C)[C@@H]4CC[C@H]3C[C@@H](NC(=O)c3cc(O)c(O)cc3Cl)C4)CS[C@H]12)c1csc(N)n1)C(=O)[O-] (some centres unmarked) [II-55]						MIC [1, 14]: 0.25 µg/mL (≈ 0.321 µM); MIC [2, 15]: 0.25 µg/mL (≈ 0.321 µM); MIC [4, 16]: 0.5 µg/mL (≈ 0.642 µM); MIC [5, 17]: 0.5 µg/mL (≈ 0.642 µM)
C[N+]1(CC2=C(C(=O)[O-])N3C(=O)C(NC(=O)C(=NOC(CC(=O)O)C(=O)[O-])c4csc(N)n4)C3SC2)C2CCC1CC(NC(=O)c1cc(O)c(O)cc1Cl)C2.[Na+] (centres unmarked) [II-56]	0.25	0.25		0.5	0.5	
CC(C)(O/N=C(\C(=O)N[C@@H]1C(=O)N2C(C(=O)O)=C(C[N@+]3(C)[C@@H]4CC[C@H]3C[C@@H](NC(=O)c3cc(F)c(O)c(O)c3F)C4)CS[C@H]12)c1csc(N)n1)C(=O)[O-] [III-9]						MIC [1, 14]: 0.125 µg/mL (≈ 0.16 µM); MIC [2, 15]: 0.125 µg/mL (≈ 0.16 µM); MIC [4, 16]: 0.25 µg/mL (≈ 0.321 µM); MIC [5, 17]: 0.5 µg/mL (≈ 0.641 µM)
C[N+]1(CC2=C(C(=O)[O-])N3C(=O)C(NC(=O)C(=NOC(CC(=O)O)C(=O)[O-])c4csc(N)n4)C3SC2)C2CCC1CC(NC(=O)c1cc(F)c(O)c(O)c1F)C2.[Na+] (centres unmarked) [III-10]	0.125	0.125		0.25	0.5	

Second part, led by results:

Minimum Inhibitory Concentration (MIC) [1, 10] [µg/mL]	Minimum Inhibitory Concentration (MIC) [2, 11] [µg/mL]	Minimum Inhibitory Concentration (MIC) [3] [µg/mL]	Minimum Inhibitory Concentration (MIC) [4, 12] [µg/mL]	Minimum Inhibitory Concentration (MIC) [5, 13] [µg/mL]	SMILES	other results
0.125	0.5	0.125	0.25	1	Nc1nc(C(=NOC(CC(=O)[O-])C(=O)[O-])C(=O)NC2C(=O)N3C(C(=O)[O-])=C(C[N+]45CCCC4CN(C(=O)c4ccc(O)c(O)c4Cl)CC5)CSC23)cs1.[Na+].[Na+] (centres unmarked) [Compound I-14]	
0.25	0.25	0.063	0.5	1	CC(C)(ON=C(C(=O)NC1C(=O)N2C(C(=O)[O-])=C(C[N+]34CCCC3CN(C(=O)c3ccc(O)c(O)c3Cl)CC4)CSC12)c1csc(N)n1)C(=O)[O-].[Na+] (centres unmarked) [Compound I-15]	
0.125	0.5	0.063	1	2	CC(ON=C(C(=O)NC1C(=O)N2C(C(=O)[O-])=C(C[N+]34CCCC3CN(C(=O)c3ccc(O)c(O)c3Cl)CC4)CSC12)c1csc(N)n1)C(=O)[O-].[Na+] (centres unmarked) [Compound I-18]	
0.125	0.5	0.063	0.5	1	CC(ON=C(C(=O)NC1C(=O)N2C(C(=O)[O-])=C(C[N+]34CCC(CC3)N(C(=O)c3ccc(O)c(O)c3Cl)CC4)CSC12)c1csc(N)n1)C(=O)[O-].[Na+] (centres unmarked) [Compound I-23]	
0.25	1	0.063	0.5	1	CC(C)(ON=C(C(=O)NC1C(=O)N2C(C(=O)[O-])=C(C[N+]34CCCC3CN(C(=O)c3ccc(O)c(O)c3Cl)CC4)CSC12)c1csc(N)n1)C(=O)[O-].[Na+] (centres unmarked) [Compound I-31]	
0.125	0.5	0.125	1	1	CCC(ON=C(C(=O)NC1C(=O)N2C(C(=O)[O-])=C(C[N+]34CCCC3CN(C(=O)c3ccc(O)c(O)c3Cl)CC4)CSC12)c1csc(N)n1)C(=O)[O-].[Na+] (centres unmarked) [Compound I-37]	
0.25	1	0.125	2	1	NC(=O)CC(ON=C(C(=O)NC1C(=O)N2C(C(=O)[O-])=C(C[N+]34CCCC3CN(C(=O)c3ccc(O)c(O)c3Cl)CC4)CSC12)c1csc(N)n1)C(=O)[O-].[Na+] (centres unmarked) [Compound I-38]	
0.125	0.5	0.125	0.5	1	C[N+]1(CC2=C(C(=O)[O-])N3C(=O)C(NC(=O)C(=NOC(CC(=O)[O-])C(=O)[O-])c4csc(N)n4)C3SC2)CC2CN(C(=O)c3ccc(O)c(O)c3Cl)CC2C1.[Na+].[Na+] (centres unmarked) [Compound I-41]	
